From patent publication US9265189B2, “Method for reducing damage by harmful organisms in corn cultivation” (SUMITOMO CHEMICAL COMPANY, LIMITED, priority 2012, dated 2016)

How the values were obtained:
Format in all cases: in vivo
Rhopalosiphum padi = test: Green house cup test, furrow drip treatment, Rhopalosiphum padi on corn (Example 6); conditions: insects released 10 days after seeding, counted 7 days after insect releasing, 100×(A−B)/A
Method: A plastic cup (diameter 7 cm) having a volume of 390 ml was filled with a soil, a furrow was formed to a depth of 3 cm from the soil surface, the formed furrow was drip-treated with each of water-diluted liquids of a thiamethoxam water soluble powder (using a 10.0% preparation, trade name: Actara Water Soluble Powder, manufactured by Syngenta Japan K.K.), an imidacloprid water dispersible granule (using a 50.0% preparation, trade name: Admire Water dispersible Granule, manufactured by Bayer CropScience K.K.) and a thiacloprid water dispersible granule (using a 30.0% preparation, trade name: Bariard Water Dispersible Granule, manufactured by Bayer CropScience K.K.) so as to achieve the application amount described in Table 6, and then seeded with corn (variety name: Pioneer 32K61, hybrid variety) at a rate of one grain per cup, and the soil on the side of the furrow was gathered together to close the furrow. Corn was grown in a usual green house.
10 days after seeding of corn, 10 insects of Rhopalosiphum padi were released in each cup. This is called a treatment section.
On the other hand, except that a chemical was not applied, corn was grown in a usual green house in the same manner as in the treatment section, and 10 insects of Rhopalosiphum padi were released. This is called a non-chemical-treatment section.
7 days after insect releasing, the number of Rhopalosiphum padi was investigated, and a preventive value was calculated using the following equation. The results are shown in Table 6. preventive value=100×(A−B)/A
A: number of insects during investigation of non-chemical-treatment section
B: number of insects during investigation of treatment section

[1] = system: Diabrotica virgifera virgifera and Agriotes lineatus; test: Field test, lodge rate, imidacloprid in-furrow, herbicides plus cyprosulfamide on soil (Example 8); conditions: imidacloprid 120 g/ha in-furrow spray 125 L/ha, thiuram-treated seed, 165 days after application; example in present tense
Source text: (§1) A chemical fertilizer (N:P:K=15:15:15) is applied to the soil surface of a cultivated land at 300 kg/ha, and the cultivated land is then plowed. 7 days after fertilization, for suppressing generation of weeds, the soil surface of the whole cultivated land is spray-treated with a mixed liquid containing thiencarbazone-methyl and isoxaflutole, each of which being a herbicide, and cyprosulfamide which is a safener at 150 L/ha so that the application amounts of thiencarbazone-methyl, isoxaflutole and cyprosulfamide are 9.2 g/ha, 23 g/ha and 15 g/ha, respectively. 21 days after fertilization, using a pneumatic seeder (disk furrow opener) equipped with a power sprayer, a cultivated land is ditched at intervals of 75 cm to a depth of 3 cm from the soil surface, and the furrow is seeded with corn (Zea Mays; hybrid variety). […] 165 days after application of the aqueous suspension of imidacloprid, the number of plants of corn lodged due to damage by Diabrotica virgifera virgifera and Agriotes lineatus in the furrows of the treatment section and the non-treatment section, for which the number of plants of corn germinated is investigated, is investigated, a lodge rate is calculated in accordance with the following equation, and then an average lodge rate for the four investigation sections is determined.

[2] = system: Diabrotica virgifera virgifera and Agriotes lineatus; test: Field test, lodge rate, imidacloprid and cyprosulfamide in-furrow (Example 10); conditions: imidacloprid 120 g/ha together with cyprosulfamide 15 g/ha in-furrow spray 125 L/ha, thiuram-treated seed, 165 days after application; example in present tense
Source text: as §1, with “herbicide,” for “herbicide, and cyprosulfamide which is a safener”, “of thiencarbazone-methyl and” for “of thiencarbazone-methyl,”, “isoxaflutole” for “isoxaflutole and cyprosulfamide”, “9.2” for “9.2 g/ha, 23”, “and 23” for “and 15”, “variety). The furrow is seeded at intervals of 20 cm using, as a seed of corn, one treated with thiuram. A seeding density of corn is 70000 seeds/ha.” for “variety).”

Row | Structure (SMILES) | Preventive value (Rhopalosiphum padi; application amount 20 g/ha) | Preventive value (Rhopalosiphum padi; application amount 200 g/ha) | Lodge rate compared to non-treatment section [1] | Lodge rate compared to non-treatment section [2]
1 | O=[N+]([O-])NC1=NCCN1Cc1ccc(Cl)nc1 [Imidacloprid] | 100 | 100 | low lodge rate as compared to the non-treatment section | low lodge rate as compared to the non-treatment section
2 | N#C/N=C1\SCCN1Cc1ccc(Cl)nc1 [Thiacloprid] | 100 | 100 |  | 
3 | CN1COCN(Cc2cnc(Cl)s2)/C1=N\[N+](=O)[O-] [Thiamethoxam] | 100 | 100 |  | 
